Reference: patent publication US20260167641A1, “CRYSTAL FORM OF IMIDAZOPYRAZINE DERIVATIVE, PREPARATION METHOD THEREFOR AND USE THEREOF” (TRANSTHERA SCIENCES (NANJING), INC., priority 2022, published 2026)
Values after ≈ are worked out from the molar mass of the structure shown.

Tests used:
Assay type in all cases: physicochemical
[1] = Stability evaluation under influencing factors
Method: Appropriate amounts of crystal forms I, II. III, and the compound of formula (I) were taken and exposed to conditions of 60° C., RH (relative humidity) 92.5%, RH (relative humidity) 75%, and light, respectively. The samples were collected on day 30, and the purity of the samples and changes in XRPD were examined according to the 2020 edition of the Chinese Pharmacopoeia.

[2] = Hygroscopicity test; conditions: 25° C.±1° C.
Method: The experimental procedure was conducted in accordance with the guidelines for the hygroscopicity test of drugs in Chinese Pharmacopeia (2020 Edition). • 1. A dry glass weighing bottle with a stopper (outer diameter: 50 mm, height: 15 mm) was taken and placed in a thermostatic drier at 25° C.±1° C. (with a saturated ammonium chloride solution at the bottom) on the day before the test. After 24 h. the bottle was taken out, and its weight (m1) was precisely weighed. • 2. […] The total weight (m2) was precisely weighed. • 3. The weighing bottle was left open, and both the bottle and its bottle cap were placed under the constant temperature and humidity conditions described above for 24 h. • 4. The bottle was well sealed with its bottle cap, and the total weight (m3) was precisely weighed.
[formula] • 5. Hygroscopicity characteristics and hygroscopic weight gains are defined as follows. • deliquescent: sufficient water is absorbed to form a liquid; • extremely hygroscopic: the hygroscopic weight gain is not less than 15%; • hygroscopic: the hygroscopic weight gain is less than 15% but not less than 2%; • slightly hygroscopic: the hygroscopic weight gain is less than 2% but not less than 0.2%; • non-hygroscopic or almost non-hygroscopic: the hygroscopic weight gain is less than 0.2%.

[3] = Solubility test in pH 4.5 acetate buffer solution
Method: Appropriate amounts of crystal forms I, II, III, and the compound of formula (I) were weighed and placed into 15 mL centrifuge tubes separately. A pH 4.5 acetate buffer was added to each tube to prepare saturated solutions. The tubes were sealed and placed in a water bath thermostatic oscillator to shake at 37° C. and a rotation speed of 200 rpm for 24 h. After centrifugation, the supernatants were collected and diluted to the corresponding multiples. The concentrations were measured. The detection was conducted according to the 2020 edition of the Chinese Pharmacopoeia.

Purity % ([1]; 0 day): 99.3%
Crystal form identification (XRPD) ([1]; 60° C., 30 days): Consistent with day 0
Purity % ([1]; 60° C., 30 days): 99.3%
Crystal form identification (XRPD) ([1]; Light exposure, 30 days): Consistent with day 0
Purity % ([1]; Light exposure, 30 days): 98.8%
Crystal form identification (XRPD) ([1]; RH 75%, 30 days): Consistent with day 0
Purity % ([1]; RH 75%, 30 days): 99.3%
Crystal form identification (XRPD) ([1]; RH 92.5%, 30 days): Consistent with day 0
Purity % ([1]; RH 92.5%, 30 days): 99.3%
Change of crystal form (XRPD pattern) ([1]; all influencing factor conditions, 30 days): no changes in the crystal forms occurred
Stability compared to the amorphous form ([1]; influencing factors, 30 days): higher stability
Purity decrease ([1]; light exposure, 30 days vs day 0): 0.5%
24 h percentage weight gain ([2]; saturated ammonium chloride solution): 0.34%
Solubility compared to the amorphous form [3]: higher solubility
Solubility ([3]; saturated solution, 37° C., 200 rpm, 24 h): 375 µg/mL (≈ 591 µM)
Compound: Nc1nccn2c(C34CCC(NC(=O)CN5CCOCC5)(CC3)C4)nc(-c3ccc(C(=O)Nc4cc(C(F)(F)F)ccn4)cc3)c12 (single isomer, unassigned) [Crystal form II, 4-(8-amino-3-(4-(2-morpholinoacetamido)bicyclo[2.2.1]heptan-1-yl)imidazo[1,5-a]pyrazin-1-yl)-N-(4-(trifluoromethyl)pyridin-2-yl)benzamide]
Hygroscopicity characteristic ([2]; 24 h): slightly hygroscopic (the hygroscopic weight gain is less than 2% but not less than 0.2%)
